Results published in patent publication US6410792B1, “Amide derivatives and methods for using the same as selective neuropeptide Y receptor antagonists” (Bayer Corporation, priority 1997, dated 2002).
Counter-ions that a name gives are not always drawn. Like-named read-outs stand apart in the source and are kept apart here.

Key:
Human NPY5 receptor = biological target: T1, Human NPY5 receptor (Homo sapiens, UniProt Q15761); assay: Human NPY5 receptor binding assay ([125I]PYY, membrane protein); details: read-out: hNPY5 IC50
T1 sequence (Q15761 1-445): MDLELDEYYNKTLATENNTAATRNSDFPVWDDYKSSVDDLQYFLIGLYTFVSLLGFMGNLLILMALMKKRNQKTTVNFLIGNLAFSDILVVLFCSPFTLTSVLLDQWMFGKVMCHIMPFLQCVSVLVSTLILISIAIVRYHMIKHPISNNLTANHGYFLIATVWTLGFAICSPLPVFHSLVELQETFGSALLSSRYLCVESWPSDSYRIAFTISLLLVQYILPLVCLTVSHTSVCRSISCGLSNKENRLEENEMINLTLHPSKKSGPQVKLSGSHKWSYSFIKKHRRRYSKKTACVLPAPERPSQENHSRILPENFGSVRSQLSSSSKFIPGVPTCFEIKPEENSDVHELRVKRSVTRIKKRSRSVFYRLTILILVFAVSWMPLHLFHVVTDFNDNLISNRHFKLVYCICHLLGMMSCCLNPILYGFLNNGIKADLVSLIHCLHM
In short: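 Filter binding with membrane protein and porcine [125I]PYY at 75-100 pM, 2 h at room temperature; nonspecific binding set by 1 μM PYY.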

Rat NPY5 receptor = biological target: T2, Rat NPY5 receptor (Rattus norvegicus, UniProt Q63634); assay: Rat NPY5 receptor binding assay ([125I]PYY, membrane protein)
T2 sequence (Q63634 1-445): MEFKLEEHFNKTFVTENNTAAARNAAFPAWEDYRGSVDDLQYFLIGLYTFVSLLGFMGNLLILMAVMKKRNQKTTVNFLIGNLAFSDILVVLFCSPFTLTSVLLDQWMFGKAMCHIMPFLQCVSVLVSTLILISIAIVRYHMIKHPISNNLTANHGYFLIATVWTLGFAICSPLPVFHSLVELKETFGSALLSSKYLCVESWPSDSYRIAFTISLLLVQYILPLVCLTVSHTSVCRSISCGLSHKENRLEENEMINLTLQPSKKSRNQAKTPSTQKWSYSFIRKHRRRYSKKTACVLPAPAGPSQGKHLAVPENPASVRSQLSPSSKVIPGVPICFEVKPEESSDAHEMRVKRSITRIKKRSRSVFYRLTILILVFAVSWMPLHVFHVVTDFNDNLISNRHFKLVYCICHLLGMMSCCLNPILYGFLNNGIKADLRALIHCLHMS
Method: C. Human and Rat NPY5 Receptor Binding Assays
Binding assays are performed on GF/C Millipore 96well plates pretreated with 0.02% polyethylenimine. The binding buffer is 25 mM Tris, 120 mM NaCl, 5 mM KCl, 1.2 mM KH2PO4, 2.5 mM CaCl2, 1.2 mM MgSO4, 0.1% BSA and 0.5 mg/ml bacitracin, pH 7.4. Samples consist of membrane protein, 75-100 pM [125I]PYY (porcine, NEN-DuPont) and drug dilution. Nonspecific binding is defined by 1 μM PYY. After a 2 hour incubation at room temperature with constant mixing, the samples are aspirated on a vacuum manifold, and rinsed with ice-cold binding buffer. The amount of radioactivity in each well is quantitated with either gamma counting or liquid scintillation.

[1] = [125I]PYY binding, read-out: rNPY5 IC50
[2] = [125I]PYY, read-out: rNPY5 IC50

| Compound | IC50 (Human NPY5 receptor; [125I]PYY binding) [nM] | IC50 (Rat NPY5 receptor; [1]) [nM] | IC50 (Human NPY5 receptor; [125I]PYY) [nM] | IC50 (Rat NPY5 receptor; [2]) [nM] | IC50 (Rat NPY5 receptor; rNPY5 IC50, [125I]PYY) [nM] |
| --- | --- | --- | --- | --- | --- |
| CC(C)(C)OC(=O)NC1CCN(CC(=O)Nc2ccc(C3CCCCC3)cc2)C1 (stereo not drawn) [Compound 194, {1-[(4-Cyclohexyl-phenylcarbamoyl)-methyl]-pyrrolidin-3-yl}-carbamic acid tert-butyl ester] | 37 | 35 | – | – | – |
| CC(C)(C)OC(=O)NC1CCN(CC(=O)Nc2ccc(C3CCCCC3)cc2)C1 (stereo not drawn) [Compound 195, {1-[(4-Cyclohexyl-phenylcarbamoyl)-methyl]-pyrrolidin-3-yl}-carbamic acid tert-butyl ester] | 26 | 26 | – | – | – |
| CNC1CCN(CC(=O)Nc2ccc(C3CCCCC3)cc2)C1 (stereo not drawn) [Compound 198, N-(4-Cyclohexyl-phenyl)-2-(3-methylamino-pyrrolidin-1-yl)-acetamide] | 1000 | 1300 | – | – | – |
| CCNC1CCN(CC(=O)Nc2ccc(C3CCCCC3)cc2)C1 (stereo not drawn) [Compound 199, N-(4-Cyclohexyl-phenyl)-2-(3-ethylamino-pyrrolidin-1-yl)-acetamide] | 820 | 2400 | – | – | – |
| O=C(CN1CCC(CO)CC1)Nc1ccc(C2CCCCC2)cc1 [Compound 200, N-(4-Cyclohexyl-phenyl)-2-(4-hydroxymethyl-piperidin-1-yl)-acetamide] | 530 | 340 | – | – | – |
| COc1cc(CCNCC(=O)Nc2ccc(C(=O)c3ccccc3)cc2)ccc1O [Compound 202, N-(4-Benzoyl-phenyl)-2-[2-(4-hydroxy-3-methoxy-phenyl)-ethylamino]-acetamide] | 58 | 53 | – | – | – |
| CNC1CCN(CC(=O)Nc2ccc(C(=O)c3ccccc3)cc2)C1 (stereo not drawn) [Compound 203, N-(4-Benzoyl-phenyl)-2-(3-methylamino-pyrrolidin-1-yl)-acetamide] | 200 | 180 | – | – | – |
| CC(C)(C)OC(=O)NC1CCN(CC(=O)Nc2ccc(C(=O)c3ccccc3)cc2)C1 (stereo not drawn) [Compound 205, {1-[(4-Benzoyl-phenylcarbamoyl)-methyl]-pyrrolidin-3-yl}-carbamic acid tert-butyl ester] | 72 | 71 | – | – | – |
| CCNC1CCN(CC(=O)Nc2ccc(C(=O)c3ccccc3)cc2)C1 (stereo not drawn) [Compound 206, N-(4-Benzoyl-phenyl)-2-(3-ethylamino-pyrrolidin-1-yl)-acetamide] | 42 | 48 | – | – | – |
| O=C(CN1CCC(NC(=O)C(F)(F)F)C1)Nc1ccc(C(=O)c2ccccc2)cc1 (stereo not drawn) [Compound 207] | 48 | 50 | – | – | – |
| N#CCNCC(=O)Nc1ccc(C(=O)c2ccccc2)cc1 [Compound 211, N-(4-Benzoyl-phenyl)-2-(cyanomethyl-amino)-acetamide] | 1300 | 1000 | – | – | – |
| O=C(CNCc1ccc(C(=O)O)cc1)Nc1ccc(C2CCCCC2)cc1 [Compound 212] | > 10000 | > 10000 | – | – | – |
| C#CC(C)(C)NCC(=O)Nc1ccc(C2CCCCC2)cc1 [Compound 213, N-(4-Cyclohexyl-phenyl)-2-(1,1-dimethyl-prop-2-ynylamino)-acetamide] | 360 | 360 | – | – | – |
| CN(C(=O)OC(C)(C)C)C1CCN(CC(=O)Nc2ccc(C3CCCCC3)cc2)C1 (stereo not drawn) [Compound 215, {1-[(4-Cyclohexyl-phenylcarbamoyl)-methyl]-pyrrolidin-3-yl)-methyl-carbamic acid tert-butyl ester] | 170 | 300 | – | – | – |
| CCCC(CO)NCC(=O)Nc1ccc(C2CCCCC2)cc1 (stereo not drawn) [Compound 216, N-(4-Cyclohexyl-phenyl)-2-(1-hydroxymethyl-butylamino)-acetamide] | 450 | > 10000 | – | – | – |
| C=CCC(NCC(=O)Nc1ccc(C2CCCCC2)cc1)C(=O)O (stereo not drawn) [Compound 220, 2-{[(4-Cyclohexyl-phenylcarbamoyl)-methyl]-amino}-pent-4-enoic acid] | 540 | 720 | – | – | – |
| CC(=O)OC1CC2CC1N(CC(=O)Nc1ccc(C3CCCCC3)cc1)C2 (stereo not drawn) [Compound 221, Acetic acid 2-[(4-cyclohexyl-phenylcarbamoyl)-methyl]-2-aza-bicyclo[2.2.1]hept-6-yl ester] | 29 | 29 | – | – | – |

| Compound | IC50 (Human NPY5 receptor; [125I]PYY binding) [nM] | IC50 (Rat NPY5 receptor; [1]) [nM] | IC50 (Human NPY5 receptor; [125I]PYY) [nM] | IC50 (Rat NPY5 receptor; [2]) [nM] | IC50 (Rat NPY5 receptor; rNPY5 IC50, [125I]PYY) [nM] |
| --- | --- | --- | --- | --- | --- |
| O=C(CNCc1ccc(C(=O)O)cc1)Nc1ccc(C(=O)c2ccccc2)cc1 [Compound 222, 4-({[(4-Benzoyl-phenylcarbamoyl)-methyl]-amino}-methyl)-benzoic acid] | > 10000 | > 10000 | – | – | – |
| C#CC(C)(C)NCC(=O)Nc1ccc(C(=O)c2ccccc2)cc1 [Compound 223, N-(4-Benzoyl-phenyl)-2-(1,1-dimethyl-prop-2-ynylamino)-acetamide] | 540 | 1400 | – | – | – |
| CN(C(=O)OC(C)(C)C)C1CCN(CC(=O)Nc2ccc(C(=O)c3ccccc3)cc2)C1 (stereo not drawn) [Compound 225, {1-[(4-Benzoyl-phenylcarbamoyl)-methyl]-pyrrolidin-3-yl)-methyl-carbamic acid tert-butyl ester] | 320 | 190 | – | – | – |
| C=CCC(NCC(=O)Nc1ccc(C(=O)c2ccccc2)cc1)C(=O)O (stereo not drawn) [Compound 230, 2-{[(4-Benzoyl-phenylcarbamoyl)-methyl]-amino}-pent-4-enoic acid] | 810 | 2500 | – | – | – |
| CC(=O)OC1CC2CC1N(CC(=O)Nc1ccc(C(=O)c3ccccc3)cc1)C2 (stereo not drawn) [Compound 231, Acetic acid 2-[(4-benzoyl-phenylcarbamoyl)-methyl]-2-aza-bicyclo[2.2.1]hept-6-yl ester] | 67 | 74 | – | – | – |
| O=C(CNCCCn1ccnc1)Nc1ccc(C2CCCCC2)cc1 [Compound 234, N-(4-Cyclohexyl-phenyl)-2-(3-imidazol-1-yl-propylamino)-acetamide] | 950 | 610 | – | – | – |
| C=CCNCC(=O)Nc1ccc(C2CCCCC2)cc1 [Compound 235, 2-Allylamino-N-(4-cyclohexyl-phenyl)-acetamide] | 1600 | 3800 | – | – | – |
| CC(=CC#N)NCC(=O)Nc1ccc(C2CCCCC2)cc1 [Compound 237, 2-(2-Cyano-1-methyl-vinylamino)-N-(4-cyclohexyl-phenyl)-acetamide] | 4400 | 1000 | – | – | – |
| COC(=O)C=C(C)NCC(=O)Nc1ccc(C2CCCCC2)cc1 [Compound 238, 3-{[(4-Cyclohexyl-phenylcarbamoyl)-methyl]-amino}-but-2-enoic acid methyl ester] | 650 | 550 | – | – | – |
| COC(CNCC(=O)Nc1ccc(C2CCCCC2)cc1)OC [Compound 241, N-(4-Cyclohexyl-phenyl)-2-(2,2-dimethoxy-ethylamino)-acetamide] | 280 | 230 | – | – | – |
| O=C(CNC1CCC1)Nc1ccc(C(=O)c2ccccc2)cc1 [Compound 242, N-(4-Benzoyl-phenyl)-2-cyclobutylamino-acetamide] | 4400 | 5000 | – | – | – |
| O=C(CNCCCn1ccnc1)Nc1ccc(C(=O)c2ccccc2)cc1 [Compound 244, N-(4-Benzoyl-phenyl)-2-(3-imidazol-1-yl-propylamino)-acetamide] | 670 | 3000 | – | – | – |
| CCN(CC)CCCC(C)NCC(=O)Nc1ccc(C(=O)c2ccccc2)cc1 (stereo not drawn) [Compound 246, N-(4-Benzoyl-phenyl)-2-(4-diethylamino-1-methyl-butylamino)-acetamide] | – | – | 1600 | 1700 | – |
| O=C(CN1CCC(O)(Cc2ccccc2)CC1)Nc1ccc(-c2ccccc2)cc1 [Compound 315, 2-(4-Benzyl-4-hydroxy-piperidin-1-yl)-N-biphenyl-4-yl-acetamide; hydrochloride] | – | – | 800 | 2000 | – |
| CCC(=O)C1(c2ccccc2)CCN(CC(=O)Nc2ccc(-c3ccccc3)cc2)CC1 [Compound 317, N-Biphenyl-4-yl-2-(4-phenyl-4-propionyl-piperidin-1-yl)-acetamide: hydrochloride] | – | – | 10 | – | 11 |
| N-(4-Cyclohexyl-phenyl)-2-(3-ethylamino-pyrrolidin-1-yl)-acetamide [Compound 196] | 43 | 49 | – | – | – |
